Measurements reported in publication PMC9917099, “The Mycotoxin Patulin Inhibits the Mitochondrial Carnitine/Acylcarnitine Carrier (SLC25A20) by Interaction with Cys136 Implications for Human Health” (International Journal of Molecular Sciences, 2023).
Residue numbers refer to the chain shown, from its start. Where “and” joins values, the source holds several entries; their conditions need not be identical. Equal values may be shown once.

What was measured:
Assay type in all cases: biochemical
[1] = target: T1, native mitochondrial carnitine/acylcarnitine carrier (CAC, SLC25A20) (Rattus norvegicus, UniProt P97521); test: [3H]-carnitine/carnitine antiport in proteoliposomes reconstituted with native CAC extracted from rat liver mitochondria; conditions: PAT incubated 30 min, 0.1 mM [3H]carnitine 10 min, read-out: IC50 of CAC inhibition
T1 construct: the native protein extracted from rat liver mitochondria; from tissue; host or cells: rat liver mitochondria (Triton X-100 extract)
T1 sequence (P97521 1-301): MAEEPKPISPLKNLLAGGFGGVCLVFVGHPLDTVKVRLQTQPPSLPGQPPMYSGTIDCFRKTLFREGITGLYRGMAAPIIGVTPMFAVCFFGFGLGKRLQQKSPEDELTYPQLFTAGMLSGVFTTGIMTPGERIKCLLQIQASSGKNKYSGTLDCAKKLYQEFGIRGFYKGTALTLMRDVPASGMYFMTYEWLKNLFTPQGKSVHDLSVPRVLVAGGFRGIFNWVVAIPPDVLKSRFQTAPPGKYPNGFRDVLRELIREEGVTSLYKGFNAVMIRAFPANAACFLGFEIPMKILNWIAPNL
Description: For studying the effect of PAT on the native mitochondrial CAC, a dose–response analysis on the rat liver-extracted mitochondria was performed. Aliquots of the mitochondrial extract (0.3 mg of total proteins) were reconstituted in liposomes and incubated for 30 min with several concentrations of PAT before starting the transport assay as [^3H]-carnitine/carnitine antiport (see Materials and Methods).
Figure 1 Effect of Patulin on the native carnitine/acylcarnitine carrier (CAC). (A) Dose-response analysis of proteoliposomes reconstituted with the CAC extracted from rat liver mitochondria (0.3 mg of total proteins) and incubated with PAT at the indicated concentrations for 30 min, before measuring the transport activity by adding 0.1 mM [^3H] carnitine for 10 min as described in Materials and Methods. The percentage of residual activity compared to control, without PAT treatment, is reported. […]
(§1) For the transport assay, 550 μL of proteoliposomes were passed through a Sephadex G-75 column in order to remove the external substrate. […] After finishing the transport reaction, the external radiolabel substrate was removed by gel filtration chromatography (Sephadex G-75), and the intraliposomal radioactivity was measured by liquid scintillation. Transport was measured at 25 °C. […] Transport rates were measured in 10 min, i.e., within the initial linear range of the time course.

[2] = target: T2, rat CAC mutant C23V/C58V/C89S/C136V/C283S (Rattus norvegicus, UniProt P97521, C136V/C23V/C283S/C58V/C89S); test: Carnitine antiport in proteoliposomes, CAC mutant containing only C155
T2 construct: made in house; host or cells: E. coli C0214 (pMW7, inclusion bodies)
T2 sequence (P97521 1-301 C23V/C58V/C89S/C136V/C283S): T1 sequence (P97521 1-301) with C23V, C58V, C89S, C136V, C283S
Description: To shed light on the interaction between PAT and CAC and verify if specific Cys residues were involved, transport experiments on the recombinant rat and human WT CAC and CAC’s rat Cys mutants were performed. As in the case of the native protein, transport activities were measured as [^3H]-carnitine/carnitine antiport in proteoliposomes. […] The PAT inhibition of the WT recombinant protein was only slightly greater compared to the native protein, although compounds and other molecular systems that affect the mycotoxin binding to the native CAC were absent (see above). For identifying the residues involved in the PAT interaction, site-directed Cys mutants were tested for inhibition (Figure 2). […]
Figure 2 Dose-response analysis of the PAT inhibition of the CAC recombinant proteins. […] The data are expressed as a percentage of the controls (no PAT addition) and are means ± SD of three independent experiments. […]
as §1

recombinant rat WT CAC = target: T3, recombinant rat WT CAC (Rattus norvegicus, UniProt P97521); test: [3H]-carnitine/carnitine antiport in proteoliposomes with recombinant rat WT CAC
T3 construct: made in house; host or cells: E. coli C0214 (pMW7, inclusion bodies)
T3 sequence (P97521 1-301): T1 sequence (P97521 1-301)
Description: To shed light on the interaction between PAT and CAC and verify if specific Cys residues were involved, transport experiments on the recombinant rat and human WT CAC and CAC’s rat Cys mutants were performed. As in the case of the native protein, transport activities were measured as [^3H]-carnitine/carnitine antiport in proteoliposomes. […] The PAT inhibition of the WT recombinant protein was only slightly greater compared to the native protein, although compounds and other molecular systems that affect the mycotoxin binding to the native CAC were absent (see above). For identifying the residues involved in the PAT interaction, site-directed Cys mutants were tested for inhibition (Figure 2). […] The choice of this last mutant was due to the proximity of C155 to C136 during some steps of the substrate translocation mechanism. […] To confirm the main role played by C136 in the carrier PAT-induced impairment, the single mutant C155S and the mutant containing only C136 residue (C23V/C58V/C89S/C155V/C283S) were examined (Figure 2). […] Finally, no effect of the mycotoxin was observed on the C-less mutant (C23V/C58V/C89S/C136V/C155V/C283S), definitively excluding the participation of other residues in the interaction with PAT.
Figure 2 Dose-response analysis of the PAT inhibition of the CAC recombinant proteins. […] The data are expressed as a percentage of the controls (no PAT addition) and are means ± SD of three independent experiments.
The pMW7-WT rat or human CAC recombinant plasmids were used for over-expressing the rat and human CAC, as previously described. To introduce the mutations on the rat CAC recombinant plasmid, the overlap extension method was used as described, introducing the NdeI and HindIII restriction sites. The PCR products were purified using the QIAEX II Gel Extraction Kit (QIAGEN, Hilden, Germany), digested with NdeI and HindIII, and then ligated into the pMW7. All mutations were verified by DNA sequencing. The resulting plasmid constructs were transformed into E. coli C0214. Overexpression, inclusion body fraction preparation, and purification of the CAC proteins were performed as previously described.
The recombinant CAC proteins were reconstituted in proteoliposomes as previously described. […]
as §1

For `O=C1C=C2C(=CCOC2O)O1` (stereo not drawn) [PAT, 4-hydroxy-4H-furo [3,2c] pyran-2 [6H] -one], the IC50 [1] was 55 µM and ~50 µM, the IC50 [2] was “not possible to detect” and the “reversal of inhibition by DTE” value (recombinant rat WT CAC; 50 μM PAT 30 min, 5 mM DTE, recombinant WT) was “not reversed”. The “substrate protection: effect of carnitine on PAT inhibition” value (recombinant rat WT CAC; carnitine 0.5 and 10 mM added before 50 μM PAT) was “partially prevented”, the type of inhibition (recombinant rat WT CAC; protein form not specified) was “competitive” and the IC50 (recombinant rat WT CAC; rat recombinant WT, PAT 30 min, read-out: IC50 of CAC WT inhibition) was 47 µM and ~50 µM.
